Test results taken from ChEMBL document CHEMBL1126965, “Synthesis and vitro antibacterial activity of hygromycin a analogs modified at the C4 aryl position” (1993).
Converted amounts (≈) assume the structure as drawn.

Legend:
Format in all cases: functional
[1] = tested on: Brachyspira hyodysenteriae; experiment: In vitro antibacterial activity against Serpulina (Treponema) hyodysenteriae
[2] = tested on: Brachyspira hyodysenteriae; experiment: In vitro antibacterial activity against Serpulina (Treponema) hyodysenteriae was tested and is expressed as minimum inhibitory concentration: Value ranges from (12.5-25 ug/mL)
[3] = tested on: Brachyspira hyodysenteriae; experiment: In vitro antibacterial activity against Serpulina (Treponema) hyodysenteriae was tested and is expressed as minimum inhibitory concentration: Value ranges from (6.25-12.5 ug/mL)
[4] = tested on: Brachyspira hyodysenteriae; experiment: In vitro antibacterial activity against Serpulina (Treponema) hyodysenteriae was tested and is expressed as minimum inhibitory concentration: Value ranges from (0.78-1.56 ug/mL)
[5] = tested on: Brachyspira hyodysenteriae; experiment: In vitro antibacterial activity against Serpulina (Treponema) hyodysenteriae was tested and is expressed as minimum inhibitory concentration: Value ranges from ([…] ug/mL)
[6] = tested on: Brachyspira hyodysenteriae; experiment: In vitro antibacterial activity against Serpulina (Treponema) hyodysenteriae was tested and is expressed as minimum inhibitory concentration: Value ranges from (50-100 ug/mL)
[7] = tested on: Brachyspira hyodysenteriae; experiment: In vitro antibacterial activity against Serpulina (Treponema) hyodysenteriae was tested and is expressed as minimum inhibitory concentration: Value ranges from (0.39-0.78 ug/mL)
[8] = tested on: Brachyspira hyodysenteriae; experiment: In vitro antibacterial activity against Serpulina (Treponema) hyodysenteriae was tested and is expressed as minimum inhibitory concentration: Value ranges from (3.13-6.25 ug/mL)

SMILES | MIC [1] | also measured
CC(=O)[C@@H]1C[C@H](O)[C@H](Oc2ccc(/C=C(\C)C(=O)N[C@@H]3[C@H](O)[C@@H](O)[C@H]4OCO[C@H]4[C@@H]3O)cc2O)O1 | > 100 µg/mL | 
C=CCOc1ccc(/C=C(\C)C(=O)N[C@@H]2[C@H](O)[C@@H](O)[C@H]3OCO[C@H]3[C@@H]2O)cc1F | 1.56 µg/mL (≈ 3.81 µM) | 
CC(=O)C1O[C@@H](Oc2ccc(/C=C(\C)C(=O)N[C@@H]3[C@H](O)[C@@H](O)[C@H]4OCO[C@H]4[C@@H]3O)cc2O)[C@@H](O)C1Sc1ccccc1 (some centres undefined) | > 100 µg/mL | 
C/C(=C\c1ccc(Cc2ccccc2)c(O)c1)C(=O)N[C@@H]1[C@H](O)[C@@H](O)[C@H]2OCO[C@H]2[C@@H]1O | > 200 µg/mL | 
C/C(=C\c1ccc(OCc2ccccc2)c(O)c1)C(=O)N[C@@H]1[C@H](O)[C@@H](O)[C@H]2OCO[C@H]2[C@@H]1O | 25 µg/mL (≈ 54.6 µM) | 
CCCNc1ccc(/C=C(\C)C(=O)N[C@@H]2[C@H](O)[C@@H](O)[C@H]3OCO[C@H]3[C@@H]2O)cc1O |  | MIC [2]: 12.5 µg/mL (≈ 30.6 µM)
COc1ccc(/C=C(\C)C(=O)N[C@@H]2[C@H](O)[C@@H](O)[C@H]3OCO[C@H]3[C@@H]2O)cc1F |  | MIC [3]: 6.25 µg/mL (≈ 16.3 µM)
CCCOc1ccc(/C=C(\C)C(=O)N[C@@H]2[C@H](O)[C@@H](O)[C@H]3OCO[C@H]3[C@@H]2O)cc1O |  | MIC [4]: 0.78 µg/mL (≈ 1.91 µM)
C=CCNc1ccc(/C=C(\C)C(=O)N[C@@H]2[C@H](O)[C@@H](O)[C@H]3OCO[C@H]3[C@@H]2O)cc1O |  | MIC [2]: 12.5 µg/mL (≈ 30.8 µM)
C/C(=C\c1ccc(N2CCCC2)cc1)C(=O)N[C@@H]1[C@H](O)[C@@H](O)[C@H]2OCO[C@H]2[C@@H]1O | 6.25 µg/mL (≈ 15.5 µM) | 
CCOc1ccc(/C=C(\C)C(=O)N[C@@H]2[C@H](O)[C@@H](O)[C@H]3OCO[C@H]3[C@@H]2O)cc1O | 1.56 µg/mL (≈ 3.95 µM) | 
C/C(=C\c1ccc(OCC(O)CO)c(O)c1)C(=O)N[C@@H]1[C@H](O)[C@@H](O)[C@H]2OCO[C@H]2[C@@H]1O (some centres undefined) | 25 µg/mL (≈ 56.6 µM) | 
C/C(=C\c1ccc(F)c(F)c1)C(=O)N[C@@H]1[C@H](O)[C@@H](O)[C@H]2OCO[C@H]2[C@@H]1O | > 200 µg/mL | 
C#CCOc1ccc(/C=C(\C)C(=O)N[C@@H]2[C@H](O)[C@@H](O)[C@H]3OCO[C@H]3[C@@H]2O)cc1O | 6.25 µg/mL (≈ 15.4 µM) | 
C/C(=C\c1ccc(OCOCCO)c(O)c1)C(=O)N[C@@H]1[C@H](O)[C@@H](O)[C@H]2OCO[C@H]2[C@@H]1O | 25 µg/mL (≈ 56.6 µM) | 
C/C(=C\c1cccc(O)c1)C(=O)N[C@@H]1[C@H](O)[C@@H](O)[C@H]2OCO[C@H]2[C@@H]1O | > 200 µg/mL | 
C/C(=C\c1ccc(OCC(N)=O)c(O)c1)C(=O)N[C@@H]1[C@H](O)[C@@H](O)[C@H]2OCO[C@H]2[C@@H]1O | > 200 µg/mL | 
C/C(=C\c1ccc(OC2CCCC2)c(O)c1)C(=O)N[C@@H]1[C@H](O)[C@@H](O)[C@H]2OCO[C@H]2[C@@H]1O | 6.25 µg/mL (≈ 14.4 µM) | 
CC(=O)C1=C[C@H](O)[C@H](Oc2ccc(/C=C(\C)C(=O)N[C@@H]3[C@H](O)[C@@H](O)[C@H]4OCO[C@H]4[C@@H]3O)cc2O)O1 | 25 µg/mL (≈ 50.7 µM) | 
C=C(C)COc1ccc(/C=C(\C)C(=O)N[C@@H]2[C@H](O)[C@@H](O)[C@H]3OCO[C@H]3[C@@H]2O)cc1O | 3.13 µg/mL (≈ 7.43 µM) | 
CC(=O)CCCOc1ccc(/C=C(\C)C(=O)N[C@@H]2[C@H](O)[C@@H](O)[C@H]3OCO[C@H]3[C@@H]2O)cc1O |  | MIC [5]: 12.5 µg/mL (≈ 27.7 µM)
C/C(=C\c1ccc(N)c(O)c1)C(=O)N[C@@H]1[C@H](O)[C@@H](O)[C@H]2OCO[C@H]2[C@@H]1O | > 200 µg/mL | 

SMILES | MIC [1] | also measured
CCCCCOc1ccc(/C=C(\C)C(=O)N[C@@H]2[C@H](O)[C@@H](O)[C@H]3OCO[C@H]3[C@@H]2O)cc1O | > 200 µg/mL | 
CCCCc1ccc(/C=C(\C)C(=O)N[C@@H]2[C@H](O)[C@@H](O)[C@H]3OCO[C@H]3[C@@H]2O)cc1 |  | MIC [2]: 12.5 µg/mL (≈ 31.9 µM)
C/C(=C\c1ccc(-c2ccccc2)cc1)C(=O)N[C@@H]1[C@H](O)[C@@H](O)[C@H]2OCO[C@H]2[C@@H]1O | 12.5 µg/mL (≈ 30.4 µM) | 
C/C(=C\c1ccc(OCCF)c(O)c1)C(=O)N[C@@H]1[C@H](O)[C@@H](O)[C@H]2OCO[C@H]2[C@@H]1O | 6.25 µg/mL (≈ 15.1 µM) | 
CSC1C(C(C)=O)O[C@@H](Oc2ccc(/C=C(\C)C(=O)N[C@@H]3[C@H](O)[C@@H](O)[C@H]4OCO[C@H]4[C@@H]3O)cc2O)[C@H]1O (some centres undefined) | > 100 µg/mL | 
C/C(=C\c1ccc(N2CCCC2)c(F)c1)C(=O)N[C@@H]1[C@H](O)[C@@H](O)[C@H]2OCO[C@H]2[C@@H]1O | 6.25 µg/mL (≈ 14.8 µM) | 
CCNc1ccc(/C=C(\C)C(=O)N[C@@H]2[C@H](O)[C@@H](O)[C@H]3OCO[C@H]3[C@@H]2O)cc1O | 100 µg/mL (≈ 254 µM) | 
COc1ccc(/C=C(\C)C(=O)N[C@@H]2[C@H](O)[C@@H](O)[C@H]3OCO[C@H]3[C@@H]2O)cc1O | 12.5 µg/mL (≈ 32.8 µM) | 
CCOCOc1ccc(/C=C(\C)C(=O)N[C@@H]2[C@H](O)[C@@H](O)[C@H]3OCO[C@H]3[C@@H]2O)cc1O | 25 µg/mL (≈ 58.8 µM) | 
C/C(=C\c1ccc(OCCO)c(O)c1)C(=O)N[C@@H]1[C@H](O)[C@@H](O)[C@H]2OCO[C@H]2[C@@H]1O |  | MIC [6]: 50 µg/mL (≈ 122 µM)
C/C(=C\c1ccc(OCC2CC2)c(O)c1)C(=O)N[C@@H]1[C@H](O)[C@@H](O)[C@H]2OCO[C@H]2[C@@H]1O |  | MIC [7]: 0.39 µg/mL (≈ 0.925 µM)
CCCN(CC)c1ccc(/C=C(\C)C(=O)N[C@@H]2[C@H](O)[C@@H](O)[C@H]3OCO[C@H]3[C@@H]2O)cc1O | > 200 µg/mL | 
CSCCCOc1ccc(/C=C(\C)C(=O)N[C@@H]2[C@H](O)[C@@H](O)[C@H]3OCO[C@H]3[C@@H]2O)cc1O |  | MIC [4]: 0.78 µg/mL (≈ 1.71 µM)
C#CCOc1ccc(/C=C(\C)C(=O)N[C@@H]2[C@H](O)[C@@H](O)[C@H]3OCO[C@H]3[C@@H]2O)cc1F | 6.25 µg/mL (≈ 15.3 µM) | 
C=CC(C)Oc1ccc(/C=C(\C)C(=O)N[C@@H]2[C@H](O)[C@@H](O)[C@H]3OCO[C@H]3[C@@H]2O)cc1O (some centres undefined) | 25 µg/mL (≈ 59.3 µM) | 
CCCCOc1ccc(/C=C(\C)C(=O)N[C@@H]2[C@H](O)[C@@H](O)[C@H]3OCO[C@H]3[C@@H]2O)cc1O | 1.56 µg/mL (≈ 3.68 µM) | 
CCCCc1ccc(/C=C(\C)C(=O)N[C@@H]2[C@H](O)[C@@H](O)[C@H]3OCO[C@H]3[C@@H]2O)cc1O |  | MIC [8]: 3.13 µg/mL (≈ 7.68 µM)
C=CCN(C(C)=O)c1ccc(/C=C(\C)C(=O)N[C@@H]2[C@H](O)[C@@H](O)[C@H]3OCO[C@H]3[C@@H]2O)cc1O | > 200 µg/mL | 
C/C(=C\c1ccc(O)c(O)c1)C(=O)NC1[C@@H](O)[C@@H]2OCO[C@@H]2[C@H](O)[C@H]1O (some centres undefined) | 200 µg/mL (≈ 544 µM) | 
C/C(=C\c1ccc(OCc2cccs2)c(O)c1)C(=O)N[C@@H]1[C@H](O)[C@@H](O)[C@H]2OCO[C@H]2[C@@H]1O |  | MIC [8]: 3.13 µg/mL (≈ 6.75 µM)
C=CCOc1ccc(/C=C(\C)C(=O)N[C@@H]2[C@H](O)[C@@H](O)[C@H]3OCO[C@H]3[C@@H]2O)cc1O | 0.78 µg/mL (≈ 1.91 µM) | 
CC(=O)[C@H]1O[C@@H](Oc2ccc(/C=C(\C)C(=O)N[C@@H]3[C@H](O)[C@@H](O)[C@H]4OCO[C@H]4[C@@H]3O)cc2O)[C@@H](O)[C@@H]1O [HYGROMYCIN A] |  | MIC [4]: 0.78 µg/mL (≈ 1.52 µM)
